Experiment: recombinant UMI read abundance after kanamycin selection (control-corrected) (log10(CPM+1)); higher = more efficient recombination; extreme values may be limits of the assay; sequences stand for … in AGTGCAGAGAAAATCGGCCAGTTTTCTCTGCCTGCAGTCCGCATGCCGTGGGACCCCTTGGGTTCTAACCTGTTGCCTAGATTTATGCAGCGGACTGCCTTTCTCCCAAAGTGATAAACCGG…AGGTTGGTTTCACT; site = the 11-nt donor
Method: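 Pooled E. coli donor-specificity screen for the IS621 bridge recombinase. Each library member carries a reprogrammed 11-nt donor and a full-length LE bridge RNA expressed in cis from the natural promoter, with a paired donor-binding loop (8-nt LDG + 4-nt RDG) and a target-binding loop fixed to T5. It is co-electroporated with a T5 target plasmid; recombinase is induced with 0.07 mM IPTG and recombinants are selected on kanamycin. UMIs are counted as CPM, averaged over two biological replicates and corrected by the unselected control. Molecule = full bridge RNA written as DNA, built from the T5 scaffold: LDG = donor specificity nt 1-8, RDG = reverse complement of nt 8-11.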
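Further: IS621 bridge recombinase in Escherichia coli cells against a fixed T5 target plasmid.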

| Sequence | recombinant UMI read abundance (log10) |
| --- | --- |
| ACTAGAACATGGACCGGTTTTCCCGGTAATCCGTATTTGAG (site ACTAGAACTCA) | 0.00396 |
| ACTAGAACATGGACCGGTTTTCCCGGTAATCCGTATTTGAG (site ACTAGAACTCC) | 0.0223 |
| ACTAGAACATGGACCGGTTTTCCCGGTAATCCGTATTTGAG (site ACTAGAACTCG) | 0 |
| ACTAGAACATGGACCGGTTTTCCCGGTAATCCGTATTTGAG (site ACTAGAACTCT) | 1.72 |
| ACTAGAACATGGACCGGTTTTCCCGGTAATCCGTATTTGAG (site ACTAGAACTGT) | 0 |
| ACTAGAACATGGACCGGTTTTCCCGGTAATCCGTATTTGAG (site ACTAGAACTTT) | 0.286 |
| ACTAGAACATGGACCGGTTTTCCCGGTAATCCGTATTTGAG (site ACTAGACCTCT) | 0.00567 |
| ACTAGAACATGGACCGGTTTTCCCGGTAATCCGTATTTGAG (site ACTAGAGCTCT) | 0.324 |
| ACTAGAACATGGACCGGTTTTCCCGGTAATCCGTATTTGAG (site ACTAGATCTCT) | 1.72 |
| ACTAGAACATGGACCGGTTTTCCCGGTAATCCGTATTTGAG (site ACTAGCACTCT) | 0.0125 |
| ACTAGAACATGGACCGGTTTTCCCGGTAATCCGTATTTGAG (site ACTAGGACTCT) | 0.407 |
| ACTAGAACATGGACCGGTTTTCCCGGTAATCCGTATTTGAG (site ACTAGTACTCT) | 0.0383 |
| ACTAGAACATGGACCGGTTTTCCCGGTAATCCGTATTTGAG (site ACTATAACTCT) | 1.22 |
| ACTAGAACATGGACCGGTTTTCCCGGTAATCCGTATTTGAG (site ACTCGAACTCT) | 0.115 |
| ACTAGAACATGGACCGGTTTTCCCGGTAATCCGTATTTGAG (site ACTGGAACTCT) | 0.3 |
| ACTAGAACATGGACCGGTTTTCCCGGTAATCCGTATTTGAG (site ACTTGAACTCT) | 0.118 |
| ACTAGAACATGGACCGGTTTTCCCGGTAATCCGTATTTGAG (site AGTAGAACTCT) | 0.227 |
| ACTAGAACATGGACCGGTTTTCCCGGTAATCCGTATTTGAG (site ATTAGAACTCT) | 1.34 |
| ACTAGAACATGGACCGGTTTTCCCGGTAATCCGTATTTGAG (site CCTAGAACTCT) | 1.33 |

| Sequence | recombinant UMI read abundance (log10) |
| --- | --- |
| ACTAGAACATGGACCGGTTTTCCCGGTAATCCGTATTTGAG (site GCTAGAACTCT) | 0.34 |
| ACTAGAACATGGACCGGTTTTCCCGGTAATCCGTATTTGAG (site TCTAGAACTCT) | 0.854 |
| ACTAGAACATGGACCGGTTTTCCCGGTAATCCGTATTTGCG (site ACTAGAACTCA) | 0.0146 |
| ACTAGAACATGGACCGGTTTTCCCGGTAATCCGTATTTGCG (site ACTAGAACTCC) | 0.0147 |
| ACTAGAACATGGACCGGTTTTCCCGGTAATCCGTATTTGCG (site ACTAGAACTCG) | 2.19 |
| ACTAGAACATGGACCGGTTTTCCCGGTAATCCGTATTTGCG (site ACTAGAACTCT) | 0.412 |
| ACTAGACCATGGACCGGTTTTCCCGGTAATCCGTATTTGGA (site ACTAGACCTTC) | 0.014 |
| ACTAGAGCATGGACCGGTTTTCCCGGTAATCCGTATTTGAG (site ACTAGAACTCT) | 1.52 |
| ACTAGAGCATGGACCGGTTTTCCCGGTAATCCGTATTTGAG (site ACTAGACCTCT) | 0 |
| ACTAGAGCATGGACCGGTTTTCCCGGTAATCCGTATTTGAG (site ACTAGAGCTCT) | 2.15 |
| ACTAGAGCATGGACCGGTTTTCCCGGTAATCCGTATTTGAG (site ACTAGATCTCT) | 1.65 |
| ACTAGAGCATGGACCGGTTTTCCCGGTAATCCGTATTTGCA (site ACTAGAGCTTG) | 2.15 |
| ACTAGCGCATGGACCGGTTTTCCCGGTAATCCGTATTTGGT (site ACTAGAGCTAC) | 0.428 |
| ACTAGCGCATGGACCGGTTTTCCCGGTAATCCGTATTTGGT (site ACTAGCGCTAC) | 1.86 |
| ACTAGCGCATGGACCGGTTTTCCCGGTAATCCGTATTTGGT (site ACTAGGGCTAC) | 0.00433 |
| ACTAGCGCATGGACCGGTTTTCCCGGTAATCCGTATTTGGT (site ACTAGTGCTAC) | 0.00815 |
| ACTAGGACATGGACCGGTTTTCCCGGTAATCCGTATTTGAG (site ACTAGAACTCT) | 2.04 |
| ACTAGGACATGGACCGGTTTTCCCGGTAATCCGTATTTGAG (site ACTAGCACTCT) | 0.00393 |
| ACTAGGACATGGACCGGTTTTCCCGGTAATCCGTATTTGAG (site ACTAGGACTCT) | 2.15 |

| Sequence | recombinant UMI read abundance (log10) |
| --- | --- |
| ACTAGGACATGGACCGGTTTTCCCGGTAATCCGTATTTGAG (site ACTAGTACTCT) | 0.226 |
| ACTAGGGCATGGACCGGTTTTCCCGGTAATCCGTATTTGGT (site ACTAGAGCTAC) | 1.2 |
| ACTAGGGCATGGACCGGTTTTCCCGGTAATCCGTATTTGGT (site ACTAGCGCTAC) | 0.00536 |
| ACTAGGGCATGGACCGGTTTTCCCGGTAATCCGTATTTGGT (site ACTAGGGCTAC) | 1.2 |
| ACTAGGGCATGGACCGGTTTTCCCGGTAATCCGTATTTGGT (site ACTAGTGCTAC) | 0.0165 |
| ACTAGTACATGGACCGGTTTTCCCGGTAATCCGTATTTGGT (site ACTAGTACTAC) | 1.19 |
| ACTAGTACATGGACCGGTTTTCCCGGTAATCCGTATTTGGT (site ACTAGTCCTAC) | 0.00589 |
| ACTAGTACATGGACCGGTTTTCCCGGTAATCCGTATTTGGT (site ACTAGTGCTAC) | 0.181 |
| ACTAGTACATGGACCGGTTTTCCCGGTAATCCGTATTTGGT (site ACTAGTTCTAC) | 0 |
| ACTAGTGCATGGACCGGTTTTCCCGGTAATCCGTATTTGCC (site ACTAGTGCTGG) | 1.93 |
| ACTAGTTCATGGACCGGTTTTCCCGGTAATCCGTATTTGAA (site ACTAGTTCTTT) | 1.03 |
| ACTATGCCATGGACCGGTTTTCCCGGTAATCCGTATTTGTC (site ACTATGCCTGA) | 0 |
| ACTCATCCATGGACCGGTTTTCCCGGTAATCCGTATTTGAC (site ACACATCCTGT) | 0 |
| ACTCATCCATGGACCGGTTTTCCCGGTAATCCGTATTTGAC (site ACCCATCCTGT) | 0.872 |
| ACTCATCCATGGACCGGTTTTCCCGGTAATCCGTATTTGAC (site ACGCATCCTGT) | 0.525 |
| ACTCATCCATGGACCGGTTTTCCCGGTAATCCGTATTTGAC (site ACTCATCCTGT) | 0.798 |
| ACTCCAACATGGACCGGTTTTCCCGGTAATCCGTATTTGCT (site ACTCCAACTAG) | 1.66 |
| ACTCCACCATGGACCGGTTTTCCCGGTAATCCGTATTTGTG (site ACTCCACCTCA) | 0.0232 |
| ACTCCGACATGGACCGGTTTTCCCGGTAATCCGTATTTGGC (site ACTCCGACTGC) | 1.98 |

— the supplement of paper PMC11208160
